# Test results reported in US20140314844A1, “ORAL COMPLEX FORMULATION COMPRISING OMEGA-3 FATTY ACID AND HMG-COA REDUCTASE INHIBITOR WITH IMPROVED STABILITY” (HANMI PHARM. CO., LTD, priority 2011, published 2014).
# Assay: Suitability test between capsule ingredients and rosuvastatin calcium (heating, HPLC of related material RRT 0.72)
# Type: physicochemical
# Settings: rosuvastatin 50 mg mixed with 100 mg capsule ingredient, heated at 100° C. for 2 hours, FIG. 1
# Method: In order to evaluate interaction between the ingredients of a soft or hard capsule and statins, the following test was performed.
# Specifically, gelatin (grade: 165 bloom, Geltech, Korea) which is a main ingredient of capsule; glycerol, propylene glycol and polyethylene glycol (PEG400), which are often used as a plasticizer; and sorbitol sorbitan solution (ROQUETTE, France, NF grade, containing solid content of 27.5 wt % of sorbitan and 34.4 wt % of sorbitol) were examined to evaluate the interaction with rosuvastatin calcium. In accordance with the ingredients described in Table 1, all ingredients were mixed, heated at 100° C. for 2 hours, and then evaluated by HPLC analysis.
# HPLC analysis was performed using a stainless steel column of approximately 250 mm length, packed with 5 μm C18 or a similar column (Inertsil-ODS2, GL sciences) with a mobile phase of water:acetonitrile:1%(v/v) trifluoroacetic acid solution (62:37:1 (v/v)) at flow rate of 0.75 mL/min. The peak of related material as compared to the major peak of rosuvastatin, was analyzed quantitatively.
compound,measurement,value
"CC(C)c1nc(N(C)S(C)(=O)=O)nc(-c2ccc(F)cc2)c1/C=C/[C@@H](O)C[C@@H](O)CC(=O)[O-].CC(C)c1nc(N(C)S(C)(=O)=O)nc(-c2ccc(F)cc2)c1/C=C/[C@@H](O)C[C@@H](O)CC(=O)[O-].[Ca+2] [Ref. Ex. 1, rosuvastatin calcium]",production of related material RRT 0.72,excluding
